Experimental findings from US20220062258A1, “Heterocyclic derivatives” (Merck Patent GmbH, priority 2019, published 2022) are described below.

The experiment deals with HUVEC primary endothelial cells. Nature of the experiment: HUVEC proliferation assay (CyQUANT Direct). The format is cell-based. To be noted: Homo sapiens, 72 h, 3 days incubation. The procedure:
HUVEC Proliferation Assay
Proliferation of HUVEC primary endothelial cells was used as cell-based mechanistical assay.^25 Applying the CyQUANT@ Direct Cell Proliferation Assay (Invitrogen C35011) which is based on a cell-permeant fluorescent DNA-binding dye, DNA content is used as a direct measure for cell number. Pooled HUVEC cells (Promocell C-12203) are cultivated in the medium supplied by Promocell (Cat No C-22020) for maximum 4 passages. For the assay 500 cells/well are seeded into black 384-well culture plates with clear bottom in 70 μl culture medium and incubated for 6 hours at 37° C., 5% CO2. 10 μl prediluted test compounds are added and cells incubated for 3 days at 37° C., 5% CO2 before measurement of DNA content. CyQUANT detection reagent is prepared according to the manufacturers protocol, 20 μl/well added and incubated at 37° C., 5% CO2 for at least 1 h before measurement of fluorescence at Envision multimode reader (Perkin-Elmer, Waltham) with excitation 480 nm and emission 535 nm (bottom read mode). The assay is performed as dose response with 10 compound dilutions. Inhibitory values (IC50) were determined using the program ASSAY ANALYZER® from GeneData (Basel, Switzerland).

As usually defined, the IC50 is the concentration needed to halve the response being measured. As to `O=C1CCC(N2C(=O)c3ccc(NCCOCCOCCOCCN4CCN(C(=O)c5cc6cc(N7CC[C@](O)(C(=O)NCc8cc(F)cc(F)c8)C7=O)ccc6[nH]5)CC4)cc3C2=O)C(=O)N1` (stereo partly drawn) [Compound A48, (3S)—N-[(3,5-difluorophenyl)methyl]-1-{2-[4-(2-{2-[2-(2-{[2-(2,6-dioxopiperidin-3-yl)-1,3-dioxo-2,3-dihydro-1H-isoindol-5-yl]amino}ethoxy)ethoxy]ethoxy}ethyl)piperazine-1-carbonyl]-1H-indol-5-yl}-3-hydroxy-2-oxopyrrolidine-3-carboxamide], the IC50 is 85 nM.

Turning to `CN(CCOCCOCCOCCOCCN(C)c1ccc2c(c1)C(=O)N(C1CCC(=O)NC1=O)C2=O)C(=O)c1cc2cc(N3CC[C@](O)(C(=O)NCc4cc(F)cc(F)c4)C3=O)ccc2[nH]1` (stereo partly drawn) [Compound A47, 5-[(3S)-3-{[(3,5-difluorophenyl)methyl]carbamoyl}-3-hydroxy-2-oxopyrrolidin-1-yl]-N-{2-[2-(2,6-dioxopiperidin-3-yl)-1,3-dioxo-2,3-dihydro-1H-isoindol-5-yl]-5,8,11,14-tetraoxa-2-azahexadecan-16-yl}-N-methyl-1H-indole-2-carboxamide], the IC50 was determined as 240 nM.

The compound `O=C1CCC(N2C(=O)c3cccc(NCCOCCOCCOCCOCCN4CCN(C(=O)c5cc6cc(N7CC[C@](O)(C(=O)NCc8cc(F)cc(F)c8)C7=O)ccc6[nH]5)CC4)c3C2=O)C(=O)N1` (stereo partly drawn) [Compound A56, (3S)—N-[(3,5-difluorophenyl)methyl]-1-{2-[4-(14-{[2-(2,6-dioxopiperidin-3-yl)-1,3-dioxo-2,3-dihydro-1H-isoindol-4-yl]amino}-3,6,9,12-tetraoxatetradecan-1-yl)piperazine-1-carbonyl]-1H-indol-5-yl}-3-hydroxy-2-oxopyrrolidine-3-carboxamide] returned an IC50 of 120 nM.

In turn, `O=C1CCC(N2C(=O)c3cccc(NCCOCCOCCOCCOCCNC(=O)c4cc5cc(N6CC[C@](O)(C(=O)NCc7cc(F)cc(F)c7)C6=O)ccc5[nH]4)c3C2=O)C(=O)N1` (stereo partly drawn) [Compound A44, 5-[(3S)-3-{[(3,5-difluorophenyl)methyl]carbamoyl}-3-hydroxy-2-oxopyrrolidin-1-yl]-N-(14-{[2-(2,6-dioxopiperidin-3-yl)-1,3-dioxo-2,3-dihydro-1H-isoindol-4-yl]amino}-3,6,9,12-tetraoxatetradecan-1-yl)-1H-indole-2-carboxamide] displayed an IC50 of 7000 nM.

`O=C1CCC(N2C(=O)c3ccc(C#CCOCCOCCOCCOCCNC(=O)c4cc5cc(N6CC[C@](O)(C(=O)NCc7cc(F)cc(F)c7)C6=O)ccc5[nH]4)cc3C2=O)C(=O)N1` (stereo partly drawn) [Compound A43, 5-[(3S)-3-{[(3,5-difluorophenyl)methyl]carbamoyl}-3-hydroxy-2-oxopyrrolidin-1-yl]-N-{15-[2-(2,6-dioxopiperidin-3-yl)-1,3-dioxo-2,3-dihydro-1H-isoindol-5-yl]-3,6,9,12-tetraoxapentadec-14-yn-1-yl}-1H-indole-2-carboxamide] came in with an IC50 of 7100 nM.

For the compound `O=C1CCC(N2C(=O)c3ccc(NCCOCCOCCN4CCC5(CC4)CCN(C(=O)c4cc6cc(N7CC[C@](O)(C(=O)NCc8cc(F)cc(F)c8)C7=O)ccc6[nH]4)CC5)cc3C2=O)C(=O)N1` (stereo partly drawn) [Compound A49, (3S)—N-[(3,5-difluorophenyl)methyl]-1-[2-(9-{2-[2-(2-{[2-(2,6-dioxopiperidin-3-yl)-1,3-dioxo-2,3-dihydro-1H-isoindol-5-yl]amino}ethoxy)ethoxy]ethyl}-3,9-diazaspiro[5.5]undecane-3-carbonyl)-1H-indol-5-yl]-3-hydroxy-2-oxopyrrolidine-3-carboxamide], the IC50 amounted to 51 nM.

The compound `O=C1CCC(N2C(=O)c3ccc(NC(=O)CCCCCCCCCCCCCNC(=O)c4cc5cc(N6CC[C@](O)(C(=O)NCc7cc(F)cc(F)c7)C6=O)ccc5[nH]4)cc3C2=O)C(=O)N1` (stereo partly drawn) [Compound A50, (3S)—N-[(3,5-difluorophenyl)methyl]-1-{2-[(13-{[2-(2,6-dioxopiperidin-3-yl)-1,3-dioxo-2,3-dihydro-1H-isoindol-5-yl]carbamoyl}tridecyl)carbamoyl]-1H-indol-5-yl}-3-hydroxy-2-oxopyrrolidine-3-carboxamide] returned an IC50 of 180 nM.

`O=C1CCC(N2C(=O)c3ccc(NCCCCOCCCCOCCCCNC(=O)c4cc5cc(N6CC[C@](O)(C(=O)NCc7cc(F)cc(F)c7)C6=O)ccc5[nH]4)cc3C2=O)C(=O)N1` (stereo partly drawn) [Compound A51, 5-[(3S)-3-{[(3,5-difluorophenyl)methyl]carbamoyl}-3-hydroxy-2-oxopyrrolidin-1-yl]-N-{4-[4-(4-{[2-(2,6-dioxopiperidin-3-yl)-1,3-dioxo-2,3-dihydro-1H-isoindol-5-yl]amino}butoxy)butoxy]butyl}-1H-indole-2-carboxamide] yielded an IC50 of 400 nM.

The compound `O=C1CCC(N2C(=O)c3ccc(OCCOCCOCCOCCOCCNC(=O)c4cc5cc(N6CC[C@](O)(C(=O)NCc7cc(F)cc(F)c7)C6=O)ccc5[nH]4)cc3C2=O)C(=O)N1` (stereo partly drawn) [Compound A52, 5-[(3S)-3-{[(3,5-difluorophenyl)methyl]carbamoyl}-3-hydroxy-2-oxopyrrolidin-1-yl]-N-(14-{[2-(2,6-dioxopiperidin-3-yl)-1,3-dioxo-2,3-dihydro-1H-isoindol-5-yl]oxy}-3,6,9,12-tetraoxatetradecan-1-yl)-1H-indole-2-carboxamide] showed a half-maximal inhibitory concentration (IC50) of 4900 nM.

On to `O=C1CCC(N2C(=O)c3ccc(NC(=O)COCCOCCOCCOCCOCCNC(=O)c4cc5cc(N6CC[C@](O)(C(=O)NCc7cc(F)cc(F)c7)C6=O)ccc5[nH]4)cc3C2=O)C(=O)N1` (stereo partly drawn) [Compound A55, (3S)—N-[(3,5-difluorophenyl)methyl]-1-{2-[(1-{[2-(2,6-dioxopiperidin-3-yl)-1,3-dioxo-2,3-dihydro-1H-isoindol-5-yl]carbamoyl}-2,5,8,11,14-pentaoxahexadecan-16-yl)carbamoyl]-1H-indol-5-yl}-3-hydroxy-2-oxopyrrolidine-3-carboxamide], for which the IC50 was > 30000 nM.

Take `CN(CCOCCOCCOCCOCCOCCN(C)c1cccc2c1C(=O)N(C1CCC(=O)NC1=O)C2=O)C(=O)c1cc2cc(N3CC[C@](O)(C(=O)NCc4cc(F)cc(F)c4)C3=O)ccc2[nH]1` (stereo partly drawn) [Compound A45, 5-[(3S)-3-{[(3,5-difluorophenyl)methyl]carbamoyl}-3-hydroxy-2-oxopyrrolidin-1-yl]-N-{2-[2-(2,6-dioxopiperidin-3-yl)-1,3-dioxo-2,3-dihydro-1H-isoindol-4-yl]-5,8,11,14,17-pentaoxa-2-azanonadecan-19-yl}-N-methyl-1H-indole-2-carboxamide]: the IC50 was determined as 610 nM.

As to `O=C1CCC(N2C(=O)c3cccc(C#CCOCCOCCOCCOCCOCCNC(=O)c4cc5cc(N6CC[C@](O)(C(=O)NCc7cc(F)cc(F)c7)C6=O)ccc5[nH]4)c3C2=O)C(=O)N1` (stereo partly drawn) [Compound A46, 5-[(3S)-3-{[(3,5-difluorophenyl)methyl]carbamoyl}-3-hydroxy-2-oxopyrrolidin-1-yl]-N-{18-[2-(2,6-dioxopiperidin-3-yl)-1,3-dioxo-2,3-dihydro-1H-isoindol-4-yl]-3,6,9,12,15-pentaoxaoctadec-17-yn-1-yl}-1H-indole-2-carboxamide], the IC50 was > 30000 nM.

Compound `O=C1CCC(N2C(=O)c3ccc(NCCOCCOCCOCCNC(=O)c4cc5cc(N6CC[C@](O)(C(=O)NCc7cc(F)cc(F)c7)C6=O)ccc5[nH]4)cc3C2=O)C(=O)N1` (stereo partly drawn) [Compound A42, 5-[(3S)-3-{[(3,5-difluorophenyl)methyl]carbamoyl}-3-hydroxy-2-oxopyrrolidin-1-yl]-N-(2-{2-[2-(2-{[2-(2,6-dioxopiperidin-3-yl)-1,3-dioxo-2,3-dihydro-1H-isoindol-5-yl]amino}ethoxy)ethoxy]ethoxy}ethyl)-1H-indole-2-carboxamide] returned an IC50 of 4600 nM.

For the compound `O=C1CCC(N2C(=O)c3cccc(NC(=O)CCCCCCCCCCCCCCCCNC(=O)c4cc5cc(N6CC[C@](O)(C(=O)NCc7cc(F)cc(F)c7)C6=O)ccc5[nH]4)c3C2=O)C(=O)N1` (stereo partly drawn) [Compound A57, (3S)—N-[(3,5-difluorophenyl)methyl]-1-{2-[(16-{[2-(2,6-dioxopiperidin-3-yl)-1,3-dioxo-2,3-dihydro-1H-isoindol-4-yl]carbamoyl}hexadecyl)carbamoyl]-1H-indol-5-yl}-3-hydroxy-2-oxopyrrolidine-3-carboxamide], the IC50 was > 30000 nM.
